Data on 53 compounds can be found in patent publication US20180179198A1, “TRICYCLIC MODULATORS OF TNF SIGNALING” (AbbVie Inc., priority 2015, published 2018).

One may read the IC50 as the concentration that inhibits the measured activity by half.

Structures are written as SMILES. Read-outs that look alike come from different tables or passages of the source. Where only a bound is given, the exact number is not on record here.

The target of the assay is TNFα trimer (Homo sapiens, UniProt P01375). Kind of assay: TNFα FP Competitive Binding Assay. An outline of the steps:
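Compounds, 12-point 1:3 dilutions topping at 100 μM (2.0% DMSO) or 338 μM (3.4% DMSO) final, compete with 1 nM fluorescent probe for 20 nM TNFα trimer in HEPES/NaCl/EDTA/Triton buffer. After 18-24 h incubation at 37 °C plus 1 h rt equilibration, background-subtracted polarization is read and fitted with variable slope.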

[1] abbreviates: TNFα FP competitive binding assay, class symbols A/B/C, read-out: TNF IC50.
[2] abbreviates: fluorescence polarization competition, 20 nM TNFα trimer, 1 nM OregonGreen488 probe, read-out: TNF IC50 (TNFα FP binding assay IC50).

TNFα trimer, sequence (P01375 77-233 limits assumed): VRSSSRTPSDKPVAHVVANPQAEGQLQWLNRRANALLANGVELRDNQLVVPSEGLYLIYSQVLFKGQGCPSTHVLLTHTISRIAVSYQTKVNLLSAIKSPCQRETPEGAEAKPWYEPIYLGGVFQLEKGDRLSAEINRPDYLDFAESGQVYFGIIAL

Consider `c1ccc([C@H]2CCc3nc4ccc(-c5ccnc(OC6CCCC6)c5)nc4n32)cc1` [AS.2], for which, under setting [1], the IC50 was 1 to 10 µM.

With `O=C1NCC2CN(c3ncc(-c4ccc5nc6n(c5c4)[C@@H](c4ccccc4)COC6)cn3)CCN12` (stereo partly drawn) [Example 9, 7-(5-((S)-4-Phenyl-3,4-dihydro-1H-benzo[4,5]imidazo[2,1-c][1,4]oxazin-7-yl)pyrimidin-2-yl)hexahydroimidazo[1,5-a]pyrazin-3(2H)-one], the IC50 under setting [2] is below 1 µM. For `CC1(c2ccccc2)CCc2nc3ccc(-c4cnc(N5CCN6C(=O)NCC6C5)nc4)nc3n21` (centres unmarked) [AH.9], the IC50 under setting [1] is below 1 µM. As for `OC1(c2ncc(-c3ccc4nc5n(c4c3)[C@@H](c3ccccc3)CC5)cn2)CCC1` [AA.2], the half-maximal inhibitory concentration (IC50) under setting [1] is below 1 µM. The same measure, in the same setting: the result for `O=C1CN(c2ncc(-c3ccc4nc5n(c4n3)[C@@H](c3ccccc3)COC5)cn2)CCN1` [AB.3] reads below 1 µM; that for `O=C1NC[C@@H]2CN(c3ncc(-c4ccc5nc6n(c5n4)C4(CCOc5ccccc54)COC6)cn3)CCN12` (some centres unmarked) [BB.1], below 1 µM. As for `Cc1cccc(C2(O)CCCc3nc4ccc(-c5cnc(N6CCOCC6)nc5)cn4c32)c1` (centres unmarked) [I.3], the IC50 under setting [2] was 1 to 10 µM.

In the case of `COc1ccccc1[C@H]1CCCc2nc3ccc(-c4cnc(C(C)(C)O)nc4)cn3c21` [Y.6], under setting [1], the IC50 was below 1 µM. On to `CC1(c2ccccc2)CCc2nc3ccc(-c4cnc(N5CCC(O)CC5)nc4)nc3n21` (centres unmarked) [Example 77, 1-(5-(8-Methyl-8-phenyl-7,8-dihydro-6H-pyrrolo[2′,1′:2,3]imidazo[4,5-b]pyridin-2-yl)pyrimidin-2-yl)piperidin-4-ol], for which the IC50 under setting [2] was below 1 µM. Consider `COc1ccccc1C1CCc2nc3ccc(-c4cnc(N5CCN6C(=O)NCC6C5)nc4)nc3n21` (centres unmarked) [AD.2], for which the IC50 under setting [1] was below 1 µM. `O=C1NC[C@@H]2CN(c3ncc(-c4ccc5nc6c(n5c4)[C@@H](c4ccccc4)COC6)cn3)CCN12` [AF.1]: the IC50 under setting [1] was below 1 µM. In the case of `O=C1NCC2CN(c3ncc(-c4ccc5nc6n(c5n4)C(c4ccccc4)CC6)cn3)CCN12` (centres unmarked) [L.4], the IC50 under setting [2] was below 1 µM. Still for that read-out and setting: with `c1ccc2c(c1)OCC21COCc2nc3ccc(-c4cnc(N5CCOCC5)nc4)nc3n21` (centres unmarked) [Example 51, 2′-(2-Morpholinopyrimidin-5-yl)-6′,8′-dihydro-2H-spiro[benzofuran-3,9′-pyrido[3′,2′:4,5]imidazo[2,1-c][1,4]oxazine]] the figure was below 1 µM. On the same count and under the same terms, the result for `CSc1ccc(-c2ccc3nc4n(c3c2)C(c2ccccc2)CC4)cn1` (centres unmarked) [A.16] reads 1 to 10 µM. Still for that read-out and setting: the result for `CC1CN(c2ncc(-c3ccc4nc5n(c4c3)[C@@H](c3ccccc3)COC5)cn2)CC(C)O1` (some centres unmarked) [G.23] reads 1 to 10 µM. Regarding `Cc1ncc(-c2ccc3nc4n(c3c2)C(c2ccccc2)COC4)cn1` (centres unmarked) [T.31], the IC50 under setting [1] is 1 to 10 µM. Regarding `OC1(c2cccc(Cl)c2)CCCCc2nc3ccc(-c4cnc(N5CCOCC5)nc4)cn3c21` (centres unmarked) [J.2], the IC50 under setting [2] lay within 1 to 10 µM.

For the compound `CC(C)(O)c1ncc(-c2ccc3nc4n(c3c2)C(c2ccccn2)CC4)cn1` (centres unmarked) [Example 28, 2-(5-(1-(Pyridin-2-yl)-2,3-dihydro-1H-benzo[d]pyrrolo[1,2-a]imidazol-7-yl)pyrimidin-2-yl)propan-2-ol], the IC50 under setting [2] fell in the range of 1 to 10 µM. The same measure, in the same setting: the result for `CCNC(=O)c1ccc(-c2ccc3nc4n(c3c2)C(c2ccccc2)CC4)cc1` (centres unmarked) [A.35] reads 1 to 10 µM.

As to `CC(C)Oc1ccc(-c2ccc3nc4n(c3c2)C(c2ccccc2)COC4)cn1` (centres unmarked) [T.5], under setting [1], the IC50 lay in the range of 1 to 10 µM. The same measure, in the same setting: with `CC(C)(O)c1ncc(-c2ccc3nc4n(c3n2)[C@]2(CCOc3ccccc32)COC4)cn1` [Y.14] the figure was below 1 µM. On to `O=C1CN(c2ncc(-c3ccc4nc5n(c4c3)C(c3ccccc3)CCC5)cn2)CCN1` (centres unmarked) [H.3], for which the IC50 under setting [2] lay within 1 to 10 µM.

On to `O=S1(=O)CCN(c2ncc(-c3ccc4nc5n(c4c3)[C@@H](c3ccccc3)CC5)cn2)CC1` [F.4], for which, under setting [2], the IC50 was below 1 µM. For `O=C1NCC2CN(c3ncc(-c4ccc5nc6n(c5c4)C(c4cccc(Cl)c4)COC6)cn3)CCN12` (centres unmarked) [AH.2], the IC50 under setting [1] was below 1 µM. Same read-out and setting: the result for `COc1ncc(-c2ccc3nc4n(c3n2)C2(COC4)COc3ccccc32)cn1` (centres unmarked) [BG.2] reads 1 to 10 µM. Same read-out and setting: with `c1ccc(C2COCc3nc4ccc(-c5cnc(NC6CC6)nc5)cc4n32)cc1` (centres unmarked) [T.24] the figure was 1 to 10 µM; with `COc1ncc(-c2ccc3nc4n(c3c2)C(c2ccccc2)COC4)cc1C` (centres unmarked) [T.7], 1 to 10 µM. As for `CC(C)(O)c1ncc(-c2ccc3nc4n(c3n2)C(c2ccccn2)CC4)cn1` (centres unmarked) [Example 29, 2-(5-(8-(Pyridin-2-yl)-7,8-dihydro-6H-pyrrolo[2′,1′:2,3]imidazo[4,5-b]pyridin-2-yl)pyrimidin-2-yl)propan-2-ol], the IC50 under setting [2] is 1 to 10 µM. As to `OC1CCCN(c2ncc(-c3ccc4nc5n(c4n3)C3(CCOc4ccccc43)COC5)cn2)C1` (centres unmarked) [BB.3], under setting [1], the IC50 was below 1 µM. On to `CC(C)(O)c1ncc(-c2ccc3nc4n(c3n2)C(c2ccccc2)CCC4)cn1` (centres unmarked) [O.2], for which the IC50 under setting [2] was below 1 µM. For the compound `O=c1cc(-c2ccc3nc4n(c3n2)[C@@H](c2ccccc2)CC4)ccn1CC1CCOCC1` [AW.3], the half-inhibitory concentration (IC50) under setting [1] was in the range of 1 to 10 µM. Still for that read-out and setting: with `OC1CCN(c2ncc(-c3ccc4nc5n(c4n3)[C@@]3(COC5)COc4ccccc43)cn2)CC1` [BJ.1] the figure was below 1 µM. On to `O=C(O)C1CCN(c2ncc(-c3ccc4nc5n(c4c3)C(c3ccccc3)COC5)cn2)CC1` (centres unmarked) [Example 22, 1-(5-(4-Phenyl-3,4-dihydro-1H-benzo[4,5]imidazo[2,1-c][1,4]oxazin-7-yl)pyrimidin-2-yl)piperidine-4-carboxylic acid], for which the IC50 under setting [2] lay within 1 to 10 µM. Turning to `CN1CC[C@@H](Oc2cc(-c3ccc4nc5n(c4n3)[C@@H](c3ccccc3)CC5)ccn2)C1` [AQ.6], the IC50 under setting [1] lay within 1 to 10 µM. Take `CNC(=O)c1ccc(-c2ccc3nc4n(c3c2)C(c2ccccc2)CC4)cc1` (centres unmarked) [A.40]: the concentration for half-maximal inhibition (IC50) under setting [2] is 1 to 10 µM. Take `CC(C)(O)c1ncc(-c2ccc3nc4n(c3c2)C(c2ccccc2)CC4)cn1` (centres unmarked) [Example 1, 2-(5-(1-Phenyl-2,3-dihydro-1H-benzo[d]pyrrolo[1,2-a]imidazol-7-yl)pyrimidin-2-yl)propan-2-ol]: the IC50 under setting [2] is below 1 µM. On the same count and under the same terms, the result for `Cc1ccc(C)c(C2CCc3nc4ccc(-c5cnc(N6CCN7C(=O)NCC7C6)nc5)nc4n32)c1` (centres unmarked) [N.4] reads below 1 µM; that for `OC1CCC(Oc2cc(-c3ccc4nc5n(c4n3)C3(COC5)COc4ccccc43)ccn2)CC1` (centres unmarked) [Example 54, 4-((4-(6′,8′-dihydro-2H-spiro[benzofuran-3,9′-pyrido[3′,2′:4,5]imidazo[2,1-c][1,4]oxazin]-2′-yl)pyridin-2-yl)oxy)cyclohexanol], below 1 µM. `c1ccc(C2COCc3nc4ccc(-c5ccc(N6CCOCC6)nc5)cc4n32)cc1` (centres unmarked) [T.25]: the IC50 under setting [1] is below 1 µM.

`CC(=O)N1CCN(c2ncc(-c3ccc4nc5n(c4n3)[C@@H](c3cccc(CO)c3)CC5)cn2)C[C@H]1C` [Example 44, 1-((R)-4-(5-((R)-8-(3-(Hydroxymethyl)phenyl)-7,8-dihydro-6H-pyrrolo[2′,1′:2,3]imidazo[4,5-b]pyridin-2-yl)pyrimidin-2-yl)-2-methylpiperazin-1-yl)ethanone]: under setting [2], the IC50 was below 1 µM. On the same count and under the same terms, with `O=C1NC[C@H]2CN(c3ncc(-c4ccc5nc6n(c5c4)[C@@H](c4ccccc4)CC6)cn3)CCN12` [Example 25, (S)-7-(5-((R)-1-Phenyl-2,3-dihydro-1H-benzo[d]pyrrolo[1,2-a]imidazol-7-yl)pyrimidin-2-yl)hexahydroimidazo[1,5-a]pyrazin-3(2H)-one] the figure was below 1 µM. In the case of `c1ccc(C2COCc3nc4ccc(-c5cnc(N6CCCOCC6)nc5)nc4n32)cc1` (centres unmarked) [AZ.3], under setting [1], the IC50 was 1 to 10 µM. Still for that read-out and setting: the result for `OC1CC2(CCN(c3ncc(-c4ccc5nc6n(c5c4)C(c4cccc(F)c4)COC6)cn3)CC2)C1` (centres unmarked) [X.2] reads below 1 µM. Same read-out and setting: the result for `c1ccc([C@H]2CCc3nc4ccc(-c5ccnc(O[C@@H]6CCNC6)c5)nc4n32)cc1` [AT.2] reads 1 to 10 µM; that for `c1ccc2c(c1)OCC21COCc2nc3ccc(-c4cnc(NC5CCOC5)nc4)nc3n21` (centres unmarked) [AU.3], 1 to 10 µM. As to `COc1ccccc1C1=CCCc2nc3ccc(-c4cnc(N5CCOCC5)nc4)cn3c21` [Example 14, 4-(5-(9-(2-Methoxyphenyl)-6,7-dihydrobenzo[4,5]imidazo[1,2-a]pyridin-2-yl)pyrimidin-2-yl)morpholine], under setting [2], the IC50 is 10 to 100 µM.

Consider `c1ccc(C2COCc3nc4ccc(-c5ccc(N6CCNCC6)nc5)cc4n32)cc1` (centres unmarked) [T.10], for which the concentration for half-maximal inhibition (IC50) under setting [1] was in the range of 1 to 10 µM. With `COc1ccccc1C1CCOc2nc3ccc(-c4ccnc(O[C@H]5CC[C@H](O)CC5)c4)cn3c21` (stereo partly drawn) [Example 57, trans-4-((4-(4-(2-Methoxyphenyl)-3,4-dihydro-2H-pyrano[2′,3′:4,5]imidazo[1,2-a]pyridin-7-yl)pyridin-2-yl)oxy)cyclohexanol], the IC50 under setting [2] is below 1 µM.

With `OC1CCN(c2ncc(-c3ccc4nc5n(c4n3)C3(CCc4ccccc43)COC5)cn2)CC1(F)F` (centres unmarked) [AV.4], under setting [1], the IC50 was below 1 µM.

Turning to `C[C@@H]1CN(C(=O)COC(C)(C)C)CCN1c1ncc(-c2ccc3nc4n(c3n2)C2(COC4)COc3ccccc32)cn1` (stereo partly drawn) [BG.5, 1-((3R)-4-(5-(2H,6′H,8′H-Spiro[benzofuran-3,9′-pyrido[3′,2′:4,5]imidazo[2,1-c][1,4]oxazin]-2′-yl)pyrimidin-2-yl)-3-methylpiperazin-1-yl)-2-(tert-butoxy)ethan-1-one], the IC50 under setting [1] was in the range of 1 to 10 µM. With `COc1ccccc1[C@@H]1CCc2nc3ccc(-c4cnc(C(C)(C)O)nc4)cn3c21` [Example 11, (S)-2-(5-(1-(2-Methoxyphenyl)-2,3-dihydro-1H-cyclopenta[4,5]imidazo[1,2-a]pyridin-7-yl)pyrimidin-2-yl)propan-2-ol], under setting [2], the IC50 is 10 to 100 µM. Consider `COc1ccccc1C1CCCc2nc3ccc(-c4cnc(N5CCC(O)CC5)nc4)nc3n21` (centres unmarked) [AE.1], for which, under setting [1], the IC50 was below 1 µM.

Turning to `O=C(NCC1CCCO1)c1ccc(-c2ccc3nc4n(c3c2)C(c2ccccc2)CC4)cc1` (centres unmarked) [A.26], under setting [2], the IC50 is 1 to 10 µM.
